{"source": "patent US20210059927A1", "about": "“COSMETIC COMPOSITION COMPRISING DENDROBIUM CANDIDUM FLOWER EXTRACT” (LG HOUSEHOLD & HEALTH CARE LTD., priority 2017, published 2021)", "key": {"[1]": {"test_system": "RAW264.7 cell line", "test": "Inhibitory effect of nitric oxide (NO) production, GRIESS method, LPS-stimulated", "format": "cell-based, mouse", "conditions": "positive control 20 ppm, LPS 1 ppm, 24 hours, relative to LPS-only group; n=4", "description": "In order to confirm the anti-inflammatory effect and skin trouble improvement effect of each extract prepared in Preparation Examples 1 to 9, NO production inhibitory effect was measured by the GRIESS method using RAW264.7 cell line (ATCC number: CRL-2278).\nSpecifically, RAW264.7 cells, which are macrophages of mice, were subcultured several times, and cultured for 24 hours after being placed in a 24-well plate such that 3×10^5 cells were placed in one well. After exchanging with a cell medium containing the sample at a final concentration of 0.1%, an untreated medium was used as a negative group and for a positive control group, 20 ppm of L-NG-monomethylarginine (L-NMMA) was used, which is a NO-production inhibitor. 1 ppm of lipopolysaccharide was treated as a stimulus source and cultured for 24 hours. The supernatant was transferred to a 96-well plate by 100 μL, and the GRIESS solution was added by 100 μL to react at room temperature for 10 minutes, and the NO inhibitory effect was determined by measuring the absorbance at 540 nm.\nThe NO production inhibitory rate (%) was calculated as a relative ratio of the amount of reduced NO compared to the LPS-only treatment group, and the results are shown in Table 3 below."}, "[2]": {"test_system": "B-16 mouse melanoma cell", "test": "Inhibitory effect of melanin production at cellular level", "format": "cell-based", "conditions": "positive control 100 ppm, 3 days, relative to negative control; n=4", "description": "In order to confirm the brightening effect through the inhibition of melanin production of each extract prepared in Preparation Examples 1 to 9, the samples obtained in Preparation Examples 1 to 9 were added to a culture medium of mouse melanoma cells (B-16 mouse melanoma cell) to measure the total amount of melanin (Lotan R. et al., Cancer Res. 40:3345-3350, 1980). Prior to measuring the total amount of melanin, brightening evaluation was performed at non-toxic concentrations by first evaluating the toxicity of mouse melanoma cells. […]\nThereafter, the cells were trypsin-treated, detached from the culture vessel, and centrifuged, and melanin was extracted. The detached cells were added with 1 mL of sodium hydroxide solution (1N concentration), boiled for 10 minutes to dissolve the melanin, and the absorbance was measured at 405 nm using a spectrophotometer to measure the amount of melanin produced.\nThe amount of melanin was measured by the absorbance of the unit cell count (1×10^6 cells), and the melanin production inhibition rate (%) was calculated as the total amount of melanin relative to the negative control group, and the results are shown in Table 2 below."}, "[3]": {"test_system": "type 1 collagen in human-derived fibroblasts", "test": "Synthesis promotion effect of type 1 collagen in human-derived fibroblasts (PICP EIA kit)", "format": "cell-based", "conditions": "positive control 10 ng/ml, relative to negative control; n=4", "description": "In order to confirm the wrinkle improvement effect through promoting the synthesis of type 1 collagen of each extract prepared in Preparation Examples 1 to 9, collagen synthesis rate was measured by adding the samples obtained in Preparation Examples 1 to 9 to the culture solution of human-derived fibroblasts. The synthesis of collagen was quantified using a PICP EIA kit (Procollagen Type I C-Peptide Enzyme ImmunoAssay KIT). After adding the sample to a culture medium of fibroblasts (DMEM medium) at a final concentration of 0.1% and culturing for 48 hours, cultures were taken and the degree of collagen synthesis of type 1 collagen at each concentration was measured at 450 nm using a spectrophotometer with PICP EIA kit.\nFor comparison of the effects, the degree of collagen synthesis was measured in the same manner with respect to a culture medium (negative control group) of untreated fibroblasts and the sample (positive control) added with TGF-β to a final concentration of 10 ng/mL.\nCollagen synthesis rate (%) was calculated as the ratio of the collagen production amount relative to the negative control, and the results are shown in Table 1 below."}, "[4]": {"test_system": "Aquaporin 3", "test": "Moisturizing gene expression by qRT-PCR in HaCaT: AQP3", "format": "cell-based, human", "conditions": "mRNA, positive control 10 ng/ml, negative control = 1.00, n=4", "description": "In order to confirm the skin moisturizing effect of each extract prepared in Preparation Examples 1 to 9, gene expression related to moisturizing was measured using the cells cultured as below.\nHuman keratinocytes (HaCaT) were in a 6-hole cell culture plate 2×10^5 each, and then cultured using Dulbecco's Modified Eagle's medium (DMEM, Gibco, Co.) including fetal bovine serum (FBS) and antibiotics for 24 hours.\nAfter culturing the cells, it was replaced with DMEM, High Glucose, no Glutamine, no calcium (Gibco, USA), and then the samples obtained in Preparation Examples 1 to 9 were treated at a concentration of 0.1% for 24 hours. […]\n2.5 μg of RNA was quantified and reverse transcription was performed using cDNA synthesis kit (PhileKorea, Korea). […] Quantitative real time PCR (qRT-). […]\nThe experimental results obtained by qRT-PCT were shown by calculating with the ΔΔCT method (Livak K J, Schmittgen T D: Analysis of relative gene expression data using real-time quantitative PCR and the 2(-Delta Delta C(T)) Method, Methods, 25, 402-408(2001)) based on housekeeping gene and glyceraldehyde-3-phosphate dehydrogenase (GAPDH). To compare effects, moisturizing gene expression was measured in the same manner for a negative control group without treating samples and a positive control group treated with EGF 10 ng/ml and Ca^2+3 mM, respectively. […]"}}}
{"molecule": "CNC(=N)NCCC[C@H](N)C(=O)O", "note": "[L-NMMA, L-NG-monomethylarginine]", "values": [{"measurement": "NO production inhibitory rate (%)", "setting": "[1]", "result": 51.85, "unit": "%"}]}
{"molecule": "OC[C@H]1O[C@@H](Oc2ccc(O)cc2)[C@H](O)[C@@H](O)[C@@H]1O", "note": "[Albutin]", "values": [{"measurement": "Melanin production inhibition rate (%)", "setting": "[2]", "result": 33.13, "unit": "%"}]}
{"molecule": "TGF-β", "values": [{"measurement": "Collagen synthesis rate (%)", "setting": "[3]", "result": 15.21, "unit": "%"}]}
{"molecule": "EGF: Positive control for moisturizing gene expression, 10 ng/ml", "values": [{"measurement": "Aquaporin 3 (fold)", "setting": "[4]", "result": 3.27, "unit": "fold"}]}
